Article PMC7904743, “WIDOCK: a reactive docking protocol for virtual screening of covalent inhibitors” (Journal of Computer-Aided Molecular Design, 2021)
Where two headings read alike, the source gives them in different places.

Columns and labels:
[1] = target: T1, MurA (Escherichia coli, UniProt P0A749); experiment: biochemical; settings: read-out: RA
Experimental: (§1) These fragments were measured in single point enzyme activity assays at 100 μM concentration against MurA and CatB.

[2] = target: T2, CatB (Homo sapiens, UniProt P07858); experiment: CatB single point enzyme activity assay (residual activity); settings: read-out: RA
Experimental: as §1

[3] = target: T2, CatB; set-up: method as in PMID 30321804; settings: cited from earlier work; for CatB RA (%): residual activity at 100 μM, single point
[4] = target: T1, MurA; settings: cited from earlier work; for MurA RA (%): residual activity at 100 μM, single point
[5] = target: T3, Recombinant human microsomal MAO-A (Homo sapiens, UniProt P21397); experiment: MAO-A activity assay (fluorimetric, Amplex Red, p-tyramine); type: biochemical; settings: for RA: MAO-A residual activity, active if lower than 60%
T3 construct: purchased Sigma Aldrich; host or cells: baculovirus infected insect cells (BTI-TN-5B1-4)
T3 sequence (P21397 1-527): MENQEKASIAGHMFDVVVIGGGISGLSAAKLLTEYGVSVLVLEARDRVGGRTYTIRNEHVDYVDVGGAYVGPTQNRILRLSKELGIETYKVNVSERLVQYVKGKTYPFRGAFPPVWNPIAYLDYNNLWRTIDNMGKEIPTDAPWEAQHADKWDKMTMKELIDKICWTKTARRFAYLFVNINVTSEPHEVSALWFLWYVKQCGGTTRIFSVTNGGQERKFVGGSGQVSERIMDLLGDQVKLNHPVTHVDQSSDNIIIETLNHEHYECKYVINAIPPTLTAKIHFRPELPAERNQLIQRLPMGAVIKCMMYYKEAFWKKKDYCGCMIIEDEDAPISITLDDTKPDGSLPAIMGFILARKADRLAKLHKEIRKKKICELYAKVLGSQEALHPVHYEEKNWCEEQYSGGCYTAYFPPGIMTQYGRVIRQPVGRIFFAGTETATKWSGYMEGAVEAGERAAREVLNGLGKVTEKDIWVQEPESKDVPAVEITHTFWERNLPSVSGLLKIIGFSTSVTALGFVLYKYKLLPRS
Experimental: The effects of the test compounds on MAO-A were investigated using a fluorimetric assay, following a previously described methodology. The inhibitory activity of the compounds was evaluated by their effects on the production of hydrogen peroxide (H2O2) from p-tyramine. The production of H2O2 was detected using Amplex Red reagent in the presence of horseradish peroxidase, where a highly sensitive fluorescent product, resorufin, is produced at stoichiometric amounts. Recombinant human microsomal MAO-A enzyme expressed in baculovirus infected insect cells (BTI-TN-5B1-4), horse-radish peroxidase (type II, lyophilized powder), and p-tyramine hydrochloride were obtained from Sigma Aldrich. 10-Acetyl-3,7-dihydroxyphenoxazine (Amplex Red reagent) was synthesized as described in the literature.
Briefly, 100 µL 50 mM sodium phosphate buffer (pH 7.4, 0.05% Triton X-114) containing the compounds and MAO-A were incubated for 30 min at 37 °C in a flat-bottomed black 96-well microplate, and placed in a dark microplate reader chamber. After the pre-incubation, the reaction was started by adding the final concentrations of 200 µM Amplex Red reagent, 2 U/mL horseradish peroxidase, and 1 mM p-tyramine (final volume, 200 µL). The production of resorufin was quantified based on the fluorescence generated (λex = 530 nm, λem = 590 nm) at 37 °C over a period of 30 min, during which time the fluorescence increased linearly. For control experiments, DMSO was used instead of the appropriate dilutions of the compounds in DMSO. To determine the blank value (b), phosphate-buffered solution replaced the enzyme solution. The initial velocities were calculated from the trends obtained, with each measurement carried out in duplicate. The specific fluorescence emission to obtain the final result was calculated after subtraction of the blank activity (b).

[6] = Kinetic measurement of adduct formation with L-glutathione (GSH) by HPLC–MS; type: physicochemical; set-up: unit not given here
Experimental: Electrophilic fragments tested against MurA, CatB and MAO-A (25–53, structures shown in Supporting Figure S2 and SMILES provided in Supporting Table S1) represent eight different warhead chemotypes reacting via two reaction mechanisms: Michael-type nucleophilic addition and nucleophilic substitution. The intrinsic thiol reactivities (see Table 1) were determined by kinetic measurement of adduct formation with L-glutathione (GSH), a widely used cysteine surrogate, by an HPLC–MS methodology, as described in the referred study.

[7] = cited from earlier work; for GSH half-life: half-life of adduct formation with L-glutathione
[8] = system: NUDT7; settings: protein labeling at 200 μM; experimental actives if % labeling higher than 50%; cited from earlier work
[9] = thiol reactivity, cited from earlier work
[10] = system: OTUB2; settings: experimental actives if % labeling higher than 50%, cited from earlier work
[11] = < 60% residual activity at 100 μM considered active
[12] = natural log of average rate constant k
[13] = natural logarithm of average rate constant
[14] = natural log of average kinetic rate constant
[15] = natural log of average rate constant

T1 sequence (P0A749 whole entry): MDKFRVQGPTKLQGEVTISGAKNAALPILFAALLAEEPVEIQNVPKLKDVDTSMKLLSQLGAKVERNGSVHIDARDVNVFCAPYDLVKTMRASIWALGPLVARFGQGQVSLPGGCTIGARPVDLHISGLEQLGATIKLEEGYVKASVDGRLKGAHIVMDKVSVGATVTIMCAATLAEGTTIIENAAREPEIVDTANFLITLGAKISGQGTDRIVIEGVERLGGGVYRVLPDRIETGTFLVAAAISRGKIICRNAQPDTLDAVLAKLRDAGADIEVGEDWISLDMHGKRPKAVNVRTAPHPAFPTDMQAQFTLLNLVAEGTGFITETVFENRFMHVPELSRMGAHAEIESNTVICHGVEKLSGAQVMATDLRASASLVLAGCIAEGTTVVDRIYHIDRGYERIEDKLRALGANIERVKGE

| SMILES | remaining activity at 100 µM [1] | remaining activity at 100 µM [2] | CatB RA (%) [3] | MurA RA (%) [4] | RA [5] | Reactivity, Experimental ln(k) vs GSH [6] | GSH half-life [7] | NUDT7 % labeling [8] | also measured |
| --- | --- | --- | --- | --- | --- | --- | --- | --- | --- |
| C=CC(=O)N(C)C [Compound 29, C=CC(=O)N(C)C] | 95% | 75% | 75% | 95% | 75% | -5.211 | 127 h |  |  |
| O=C(CCl)Nc1ccccc1 [Compound 48, O=C(CCl)Nc1ccccc1] | 110% | 88% | 88% | 110% | 95% |  |  |  |  |
| C/C=C/C(=O)OC [Compound 26, C/C=C/C(=O)OC] | 41% | 97% | 97% | 41% | 68% | -3.401 | 20.8 h |  |  |
| CC(Br)C(=O)Nc1cc(C(F)(F)F)cc(C(F)(F)F)c1 (centres unmarked) [Compound 50, CC(Br)C(=O)Nc1cc(C(F)(F)F)cc(C(F)(F)F)c1] | 35% | 91% | 91% | 35% | 83% | -4.922 | 95.2 h |  |  |
| O=C(CBr)c1ccc(-c2ccccc2)cc1 [Compound 44, O=C(CBr)c1ccc(-c2ccccc2)cc1] | 0.1% | 0.1% | 0% | 0% | 14% | 1.936 | < 0.1 h |  | experimental activity class against CatB [3, 11]: experimental actives |
| O=C1C=CCO1 [Compound 43, O=C1C=CCO1] | 75% | 99% | 99% | 75% | 99% | -5.634 | 194 h |  |  |
| Cc1ccccc1NC(=O)CCl [Compound 47, Cc1ccccc1NC(=O)CCl] | 83% | 86% | 86% | 83% | 78% | -6.153 | 326 h |  |  |
| CCOC(=O)C#Cc1ccccc1 [Compound 36, CCOC(=O)C#Cc1ccccc1] | 75% | 70% | 70% | 75% | 94% | -1.906 | 4.66 h |  |  |
| O=C1C=CC(=O)N1Cc1ccccc1 [Compound 39, O=C1C=CC(=O)N1Cc1ccccc1] | 2% | 87% | 87% | 2% | 0% | 1.936 | < 0.1 h |  | MAO-A inhibition (experimental) ([5]; MAO-A inhibitory assay): active |
| C=CC(=O)Nc1ccccc1 [Compound 30, C=CC(=O)Nc1ccccc1] | 78% | 88% | 88% | 78% | 99% |  |  |  |  |
| O=C1C=CC(=O)N1c1ccccc1 [Compound 41, O=C1C=CC(=O)N1c1ccccc1] | 0.8% | 82% | 82% | 1% | 1% | 1.936 | < 0.1 h |  | experimental activity class against MurA [4, 11]: experimental MurA actives |
| COC(=O)/C=C/C(=O)OC [Compound 25, COC(=O)/C=C/C(=O)OC] | 50% | 106% | 106% | 50% | 80% |  |  |  |  |
| CC#CC(=O)OCC [Compound 37, CC#CC(=O)OCC] | 82% | 84% | 84% | 82% | 84% | -3.194 | 16.9 h |  |  |
| C=CS(=O)(=O)c1ccccc1 [Compound 34, C=CS(=O)(=O)c1ccccc1] | 12% | 87% | 87% | 12% | 52% |  |  |  | lnk ([7]; […]): 1.45 |
| O=C(CCl)Nc1ccc(Cl)c(Cl)c1 [PCM-0102112, O=C(CCl)Nc1ccc(Cl)c(Cl)c1] |  |  |  |  |  |  |  | 18% | ln(avg k) [9, 12]: -15.433; ln(avg k) [9, 13]: -15.433; OTUB2 % labeling [10]: 30% |
| Cc1csc(N(C(=O)CCl)c2ccccc2)n1 [PCM-0102265, Cc1csc(N(C(=O)CCl)c2ccccc2)n1] |  |  |  |  |  |  |  | 19% | ln(avg k) [9, 12]: -15.232; ln(avg k) [9, 13]: -15.232; OTUB2 % labeling [10]: 6% |
| O=C(CCl)NC(=O)NC1CC1 [PCM-0102411, O=C(CCl)NC(=O)NC1CC1] |  |  |  |  |  |  |  | 0% | ln(avg k) [9, 12]: -16.777; ln(avg k) [9, 13]: -16.777; OTUB2 % labeling [10]: 0% |
| O=C(CCl)NC1CCN(C(=O)C2CCCCC2)CC1 [PCM-0102931, O=C(CCl)NC1CCN(C(=O)C2CCCCC2)CC1] |  |  |  |  |  |  |  | 0% | ln(avg k) [9, 14]: -16.253; ln(avg k) [9, 15]: -16.253; OTUB2 % labeling ([10]; OTUB2 protein labeling): 9% |
| O=C(CCl)NC1CCCC(C(F)(F)F)C1 (centres unmarked) [PCM-0102862, O=C(CCl)NC1CCCC(C(F)(F)F)C1] |  |  |  |  |  |  |  | 0% | ln(avg k) [9, 14]: -16.578; ln(avg k) [9, 15]: -16.578; OTUB2 % labeling ([10]; OTUB2 protein labeling): 14% |
| N#Cc1ccc(CNC(=O)CCl)cc1 [PCM-0102946, N#Cc1ccc(CNC(=O)CCl)cc1] |  |  |  |  |  |  |  | 0% | ln(avg k) [9, 14]: -16.364; ln(avg k) [9, 15]: -16.364; OTUB2 % labeling ([10]; OTUB2 protein labeling): 35% |
| C=CC(=O)NC(=O)Nc1ccccc1 [PCM-0102883, C=CC(=O)NC(=O)Nc1ccccc1] |  |  |  |  |  |  |  | 0% | ln(avg k) [9, 14]: -16.619; ln(avg k) [9, 15]: -16.619; OTUB2 % labeling ([10]; OTUB2 protein labeling): 0% |
| O=C(CCl)Nc1cc(F)ccc1C(=O)O [PCM-0102247, O=C(CCl)Nc1cc(F)ccc1C(=O)O] |  |  |  |  |  |  |  | 0% | ln(avg k) [9, 12]: -16.882; ln(avg k) [9, 13]: -16.882; OTUB2 % labeling [10]: 0% |
| COc1ccc(Cl)cc1C(=O)NNC(=O)CCl [PCM-0102763, COc1ccc(Cl)cc1C(=O)NNC(=O)CCl] |  |  |  |  |  |  |  | 10% | ln(avg k) [9, 14]: -16.746; ln(avg k) [9, 15]: -16.746; OTUB2 % labeling ([10]; OTUB2 protein labeling): 64% |
| O=C(CCl)Nc1nc2ccc(Br)cc2s1 [PCM-0102126, O=C(CCl)Nc1nc2ccc(Br)cc2s1] |  |  |  |  |  |  |  | 100% | ln(avg k) [9, 12]: -16.235; ln(avg k) [9, 13]: -16.235; OTUB2 % labeling [10]: 12% |
